Assay results: ChEMBL document CHEMBL4507281, “Data for DCP probe BI-4394” (2021)

Assays:
[1] = target: Activin receptor type-2B (Homo sapiens) (UniProt Q13705); details: Compound concentration 100.0 nM
[2] = target: Atypical kinase COQ8A, mitochondrial (Homo sapiens) (UniProt Q8NI60); details: Compound concentration 100.0 nM
[3] = target: RAC-beta serine/threonine-protein kinase (Homo sapiens) (UniProt P31751); details: Compound concentration 100.0 nM
[4] = target: Tyrosine-protein kinase receptor UFO (Homo sapiens) (UniProt P30530); details: Compound concentration 100.0 nM
[5] = target: BMP-2-inducible protein kinase (Homo sapiens) (UniProt Q9NSY1); details: Compound concentration 100.0 nM
[6] = target: Bone morphogenetic protein receptor type-1A (Homo sapiens) (UniProt P36894); details: Compound concentration 100.0 nM
[7] = target: Mitotic checkpoint serine/threonine-protein kinase BUB1 (Homo sapiens) (UniProt O43683); details: Compound concentration 100.0 nM
[8] = target: Calcium/calmodulin-dependent protein kinase type 1G (Homo sapiens) (UniProt Q96NX5); details: Compound concentration 100.0 nM
[9] = target: Calcium/calmodulin-dependent protein kinase kinase 1 (Homo sapiens) (UniProt Q8N5S9); details: Compound concentration 100.0 nM
[10] = target: Cyclin-dependent kinase 2 (Homo sapiens) (UniProt P24941); details: Compound concentration 100.0 nM
[11] = target: Dual specificity protein kinase CLK4 (Homo sapiens) (UniProt Q9HAZ1); details: Compound concentration 100.0 nM
[12] = target: Tyrosine-protein kinase CSK (Homo sapiens) (UniProt P41240); details: Compound concentration 100.0 nM
[13] = target: Serine/threonine-protein kinase DCLK3 (Homo sapiens) (UniProt Q9C098); details: Compound concentration 100.0 nM
[14] = target: Dual specificity tyrosine-phosphorylation-regulated kinase 1A (Homo sapiens) (UniProt Q13627); details: Compound concentration 100.0 nM
[15] = system: Epidermal growth factor receptor (Homo sapiens), P00533 [L858R,T790M]; details: Compound concentration 100.0 nM
[16] = target: Ephrin type-A receptor 3 (Homo sapiens) (UniProt P29320); details: Compound concentration 100.0 nM
[17] = target: Ephrin type-A receptor 6 (Homo sapiens) (UniProt Q9UF33); details: Compound concentration 100.0 nM
[18] = target: Fibroblast growth factor receptor 1 (Homo sapiens) (UniProt P11362); details: Compound concentration 100.0 nM
[19] = target: Fibroblast growth factor receptor 4 (Homo sapiens) (UniProt P22455); details: Compound concentration 100.0 nM
[20] = system: Receptor-type tyrosine-protein kinase FLT3 (Homo sapiens), P36888 [R834Q]; details: Compound concentration 100.0 nM
[21] = target: Glycogen synthase kinase-3 alpha (Homo sapiens) (UniProt P49840); details: Compound concentration 100.0 nM
[22] = target: Mitogen-activated protein kinase 10 (Homo sapiens) (UniProt P53779); details: Compound concentration 100.0 nM
[23] = system: Mast/stem cell growth factor receptor Kit (Homo sapiens), P10721 [D816V]; details: Compound concentration 100.0 nM
[24] = target: Dual specificity mitogen-activated protein kinase kinase 2 (Homo sapiens) (UniProt P36507); details: Compound concentration 100.0 nM
[25] = target: Serine/threonine-protein kinase mTOR (Homo sapiens) (UniProt P42345); details: Compound concentration 100.0 nM
[26] = target: Serine/threonine-protein kinase Nek10 (Homo sapiens) (UniProt Q6ZWH5); details: Compound concentration 100.0 nM
[27] = target: Serine/threonine-protein kinase Nek3 (Homo sapiens) (UniProt P51956); details: Compound concentration 100.0 nM
[28] = target: Serine/threonine-protein kinase OSR1 (Homo sapiens) (UniProt O95747); details: Compound concentration 100.0 nM
[29] = target: Serine/threonine-protein kinase PAK 2 (Homo sapiens) (UniProt Q13177); details: Compound concentration 100.0 nM
[30] = target: Cyclin-dependent kinase 18 (Homo sapiens) (UniProt Q07002); details: Compound concentration 100.0 nM
[31] = target: Membrane-associated tyrosine- and threonine-specific cdc2-inhibitory kinase (Homo sapiens) (UniProt Q99640); details: Compound concentration 100.0 nM
[32] = target: Serine/threonine-protein kinase N1 (Homo sapiens) (UniProt Q16512); details: Compound concentration 100.0 nM
[33] = target: Serine/threonine-protein kinase N2 (Homo sapiens) (UniProt Q16513); details: Compound concentration 100.0 nM
[34] = target: STE20-like serine/threonine-protein kinase (Homo sapiens) (UniProt Q9H2G2); details: Compound concentration 100.0 nM
[35] = target: Testis-specific serine/threonine-protein kinase 3 (Homo sapiens) (UniProt Q96PN8); details: Compound concentration 100.0 nM
[36] = target: Tyrosine-protein kinase receptor TYRO3 (Homo sapiens) (UniProt Q06418); details: Compound concentration 100.0 nM
[37] = target: 5-hydroxytryptamine receptor 3A (Homo sapiens) (UniProt P46098); details: Compound concentration 10.0 uM

Sequence of Serine/threonine-protein kinase N1 (Homo sapiens) (Q16512 2-942 limits assumed): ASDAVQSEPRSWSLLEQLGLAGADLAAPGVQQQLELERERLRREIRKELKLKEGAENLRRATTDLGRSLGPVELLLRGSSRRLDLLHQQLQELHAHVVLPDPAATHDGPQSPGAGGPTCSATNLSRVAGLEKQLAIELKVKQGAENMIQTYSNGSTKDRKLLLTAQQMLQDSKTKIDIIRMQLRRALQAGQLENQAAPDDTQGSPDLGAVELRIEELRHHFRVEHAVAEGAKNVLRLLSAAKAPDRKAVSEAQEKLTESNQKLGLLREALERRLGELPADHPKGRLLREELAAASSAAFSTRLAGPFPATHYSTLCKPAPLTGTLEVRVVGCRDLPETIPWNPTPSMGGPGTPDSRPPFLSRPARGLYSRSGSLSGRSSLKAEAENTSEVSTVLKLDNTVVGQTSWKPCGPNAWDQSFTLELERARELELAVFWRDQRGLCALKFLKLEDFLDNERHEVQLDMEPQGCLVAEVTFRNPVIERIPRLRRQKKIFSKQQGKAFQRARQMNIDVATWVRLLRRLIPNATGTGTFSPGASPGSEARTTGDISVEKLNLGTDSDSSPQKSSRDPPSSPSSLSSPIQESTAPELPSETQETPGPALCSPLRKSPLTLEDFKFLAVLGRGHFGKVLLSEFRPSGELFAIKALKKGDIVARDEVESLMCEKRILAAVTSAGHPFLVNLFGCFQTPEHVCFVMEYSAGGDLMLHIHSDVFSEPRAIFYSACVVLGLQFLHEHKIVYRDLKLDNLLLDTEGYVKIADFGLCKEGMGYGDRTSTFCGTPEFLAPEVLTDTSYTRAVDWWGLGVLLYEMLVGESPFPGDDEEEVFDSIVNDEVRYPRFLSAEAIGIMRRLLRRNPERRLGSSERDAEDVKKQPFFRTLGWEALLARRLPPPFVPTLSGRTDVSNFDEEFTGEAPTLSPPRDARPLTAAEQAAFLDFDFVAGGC
Sequence of STE20-like serine/threonine-protein kinase (Homo sapiens) (Q9H2G2 whole entry, looked up): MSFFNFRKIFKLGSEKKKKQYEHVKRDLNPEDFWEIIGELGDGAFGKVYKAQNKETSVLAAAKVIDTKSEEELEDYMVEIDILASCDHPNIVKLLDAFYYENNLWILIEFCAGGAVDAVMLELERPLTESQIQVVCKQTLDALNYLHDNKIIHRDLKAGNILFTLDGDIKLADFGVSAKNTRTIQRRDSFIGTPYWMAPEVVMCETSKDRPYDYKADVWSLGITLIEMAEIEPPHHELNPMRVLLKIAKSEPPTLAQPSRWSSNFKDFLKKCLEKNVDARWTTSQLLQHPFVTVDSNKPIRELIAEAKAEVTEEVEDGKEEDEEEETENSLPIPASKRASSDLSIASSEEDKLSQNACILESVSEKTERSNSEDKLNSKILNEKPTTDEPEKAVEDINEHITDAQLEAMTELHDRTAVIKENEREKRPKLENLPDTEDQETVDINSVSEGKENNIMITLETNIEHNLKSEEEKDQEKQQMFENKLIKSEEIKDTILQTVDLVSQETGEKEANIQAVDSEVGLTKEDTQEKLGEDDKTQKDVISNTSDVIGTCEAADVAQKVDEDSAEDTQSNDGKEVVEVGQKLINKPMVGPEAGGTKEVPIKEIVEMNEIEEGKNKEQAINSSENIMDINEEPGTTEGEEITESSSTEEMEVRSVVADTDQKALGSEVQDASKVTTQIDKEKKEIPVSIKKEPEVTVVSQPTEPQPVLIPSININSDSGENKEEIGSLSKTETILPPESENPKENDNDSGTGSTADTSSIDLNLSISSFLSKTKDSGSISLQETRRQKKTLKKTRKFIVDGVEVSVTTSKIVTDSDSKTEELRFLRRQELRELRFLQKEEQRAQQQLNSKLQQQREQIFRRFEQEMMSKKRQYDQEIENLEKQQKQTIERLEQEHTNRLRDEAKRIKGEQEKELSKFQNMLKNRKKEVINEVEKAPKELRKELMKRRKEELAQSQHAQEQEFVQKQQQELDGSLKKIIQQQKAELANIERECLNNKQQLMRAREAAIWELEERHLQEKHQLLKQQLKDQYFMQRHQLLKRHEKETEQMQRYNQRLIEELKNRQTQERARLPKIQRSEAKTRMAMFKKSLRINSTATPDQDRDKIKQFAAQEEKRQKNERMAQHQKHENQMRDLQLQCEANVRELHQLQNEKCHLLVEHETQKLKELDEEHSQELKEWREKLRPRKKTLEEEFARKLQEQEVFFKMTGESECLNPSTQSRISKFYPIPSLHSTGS
Sequence of Fibroblast growth factor receptor 4 (Homo sapiens) (P22455 22-802 limits assumed): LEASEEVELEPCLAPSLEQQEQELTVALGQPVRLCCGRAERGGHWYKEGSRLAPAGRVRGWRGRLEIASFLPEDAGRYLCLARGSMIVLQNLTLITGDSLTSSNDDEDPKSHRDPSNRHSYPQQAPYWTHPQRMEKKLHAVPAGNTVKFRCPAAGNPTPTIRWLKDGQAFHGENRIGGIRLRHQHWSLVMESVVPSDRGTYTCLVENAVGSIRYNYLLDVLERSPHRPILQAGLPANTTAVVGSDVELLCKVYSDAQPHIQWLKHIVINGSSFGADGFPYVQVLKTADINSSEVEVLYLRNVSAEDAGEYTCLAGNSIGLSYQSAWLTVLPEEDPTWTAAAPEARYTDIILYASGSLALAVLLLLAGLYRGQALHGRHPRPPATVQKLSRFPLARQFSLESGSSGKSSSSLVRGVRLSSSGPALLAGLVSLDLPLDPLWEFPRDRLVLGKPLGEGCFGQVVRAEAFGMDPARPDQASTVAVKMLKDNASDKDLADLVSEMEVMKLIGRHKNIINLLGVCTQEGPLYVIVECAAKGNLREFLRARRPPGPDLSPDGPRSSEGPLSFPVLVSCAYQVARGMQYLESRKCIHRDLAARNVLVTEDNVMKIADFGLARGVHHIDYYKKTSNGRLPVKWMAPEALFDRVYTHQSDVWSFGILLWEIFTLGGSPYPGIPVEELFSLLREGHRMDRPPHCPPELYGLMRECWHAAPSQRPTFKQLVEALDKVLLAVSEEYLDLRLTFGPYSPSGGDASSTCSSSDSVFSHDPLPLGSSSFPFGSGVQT
Sequence of Atypical kinase COQ8A, mitochondrial (Homo sapiens) (Q8NI60 163-647 limits assumed): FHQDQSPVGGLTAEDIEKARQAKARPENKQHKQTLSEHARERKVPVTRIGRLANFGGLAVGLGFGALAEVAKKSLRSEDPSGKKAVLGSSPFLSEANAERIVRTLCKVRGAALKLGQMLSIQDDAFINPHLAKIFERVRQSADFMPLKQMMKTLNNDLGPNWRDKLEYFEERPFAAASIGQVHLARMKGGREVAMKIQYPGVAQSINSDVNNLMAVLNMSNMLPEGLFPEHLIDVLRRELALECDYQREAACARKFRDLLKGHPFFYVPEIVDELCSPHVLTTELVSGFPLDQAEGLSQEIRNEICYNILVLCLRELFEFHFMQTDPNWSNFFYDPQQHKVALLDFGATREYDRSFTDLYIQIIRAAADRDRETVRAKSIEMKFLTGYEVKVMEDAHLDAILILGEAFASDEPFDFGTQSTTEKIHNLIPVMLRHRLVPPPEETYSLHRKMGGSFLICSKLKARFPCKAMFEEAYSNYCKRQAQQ
Sequence of Serine/threonine-protein kinase Nek10 (Homo sapiens) (Q6ZWH5 whole entry): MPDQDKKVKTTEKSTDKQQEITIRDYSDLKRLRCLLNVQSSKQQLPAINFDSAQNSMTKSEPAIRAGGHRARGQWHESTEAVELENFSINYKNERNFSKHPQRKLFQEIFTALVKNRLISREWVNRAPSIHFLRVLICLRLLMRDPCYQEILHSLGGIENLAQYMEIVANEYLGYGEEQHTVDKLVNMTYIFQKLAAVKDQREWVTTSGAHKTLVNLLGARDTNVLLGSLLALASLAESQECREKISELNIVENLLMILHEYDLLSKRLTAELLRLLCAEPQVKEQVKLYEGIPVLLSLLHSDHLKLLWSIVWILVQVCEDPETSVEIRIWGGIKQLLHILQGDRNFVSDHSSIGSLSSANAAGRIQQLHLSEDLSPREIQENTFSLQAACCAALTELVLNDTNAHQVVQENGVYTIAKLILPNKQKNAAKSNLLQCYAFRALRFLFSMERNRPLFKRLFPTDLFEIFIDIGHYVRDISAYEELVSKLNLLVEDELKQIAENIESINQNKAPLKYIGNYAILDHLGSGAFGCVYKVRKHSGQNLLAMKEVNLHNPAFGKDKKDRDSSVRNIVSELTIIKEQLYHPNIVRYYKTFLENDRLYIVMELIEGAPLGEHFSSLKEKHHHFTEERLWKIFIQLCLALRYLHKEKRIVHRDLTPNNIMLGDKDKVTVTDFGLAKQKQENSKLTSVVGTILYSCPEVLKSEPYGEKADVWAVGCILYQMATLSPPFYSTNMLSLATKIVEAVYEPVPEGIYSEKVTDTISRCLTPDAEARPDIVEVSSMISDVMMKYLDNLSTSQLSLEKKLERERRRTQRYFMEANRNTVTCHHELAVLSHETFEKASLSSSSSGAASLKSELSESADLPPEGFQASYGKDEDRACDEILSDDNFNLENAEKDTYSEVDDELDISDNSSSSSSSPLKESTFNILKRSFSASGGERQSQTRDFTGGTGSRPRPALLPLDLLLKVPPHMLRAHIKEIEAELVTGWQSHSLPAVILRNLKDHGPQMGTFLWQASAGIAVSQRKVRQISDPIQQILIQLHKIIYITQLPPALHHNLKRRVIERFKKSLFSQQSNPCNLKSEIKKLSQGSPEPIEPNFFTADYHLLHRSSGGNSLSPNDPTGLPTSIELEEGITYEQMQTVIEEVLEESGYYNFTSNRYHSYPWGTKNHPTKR
Sequence of Tyrosine-protein kinase CSK (Homo sapiens) (P41240 2-450 limits assumed): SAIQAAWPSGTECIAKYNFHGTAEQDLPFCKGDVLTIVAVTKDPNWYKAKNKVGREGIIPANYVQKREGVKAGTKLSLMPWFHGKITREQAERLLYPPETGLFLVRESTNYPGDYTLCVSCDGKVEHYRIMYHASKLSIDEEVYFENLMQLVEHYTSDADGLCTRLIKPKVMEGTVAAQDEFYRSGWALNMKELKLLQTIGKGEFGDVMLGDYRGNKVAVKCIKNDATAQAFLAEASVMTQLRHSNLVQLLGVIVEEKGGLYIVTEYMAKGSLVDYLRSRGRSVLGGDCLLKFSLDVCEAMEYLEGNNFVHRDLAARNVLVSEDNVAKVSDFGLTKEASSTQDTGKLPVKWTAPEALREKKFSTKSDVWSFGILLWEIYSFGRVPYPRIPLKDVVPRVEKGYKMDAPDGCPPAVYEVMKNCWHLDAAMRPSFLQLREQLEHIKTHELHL

| SMILES | residual activity [1] [%] | residual activity [2] [%] | residual activity [3] [%] | residual activity [4] [%] | residual activity [5] [%] | residual activity [6] [%] | residual activity [7] [%] | residual activity [8] [%] | residual activity [9] [%] | residual activity [10] [%] | residual activity [11] [%] | residual activity [12] [%] | residual activity [13] [%] | residual activity [14] [%] | residual activity [15] [%] | residual activity [16] [%] | residual activity [17] [%] | residual activity [18] [%] | residual activity [19] [%] | residual activity [20] [%] | further results |
| --- | --- | --- | --- | --- | --- | --- | --- | --- | --- | --- | --- | --- | --- | --- | --- | --- | --- | --- | --- | --- | --- |
| CCOC(=O)c1cc2cc(-c3cc(C(=O)NCc4ccc(C(=O)O)cc4)nn3C)ccc2[nH]1 [BI 4394] | 91 | 100 | 100 | 89 | 100 | 87 | 100 | 100 | 100 | 90 | 89 | 74 | 73 | 90 | 100 | 100 | 94 | 86 | 68 | 78 | residual activity [21]: 100%; residual activity [22]: 100%; residual activity [23]: 100%; residual activity [24]: 83%; residual activity [25]: 100%; residual activity [26]: 90%; residual activity [27]: 88%; residual activity [28]: 100%; residual activity [29]: 100%; residual activity [30]: 100%; residual activity [31]: 100%; residual activity [32]: 100%; residual activity [33]: 86%; residual activity [34]: 98%; residual activity [35]: 91%; residual activity [36]: 100%; inhibition [37]: 34.8% |
| Cn1nc(C(=O)NCc2ccc(C(=O)O)cc2)cc1-c1ccc2[nH]ccc2c1 [BI 4395] | 100 | 100 | 96 | 89 | 82 | 94 | 83 | 89 | 85 | 91 | 69 | 94 | 96 | 98 | 92 | 89 | 100 | 84 | 100 | 63 | residual activity [21]: 61%; residual activity [22]: 76%; residual activity [23]: 91%; residual activity [24]: 85%; residual activity [25]: 31%; residual activity [26]: 58%; residual activity [27]: 100%; residual activity [28]: 88%; residual activity [29]: 23%; residual activity [30]: 97%; residual activity [31]: 93%; residual activity [32]: 90%; residual activity [33]: 100%; residual activity [34]: 65%; residual activity [35]: 97%; residual activity [36]: 100%; inhibition [37]: 23.5% |
